Values of other authors as cited in publication PMC7179723, “Self-Assembly of Minimal Peptoid Sequences” (ACS Macro Letters, 2020).

Conditions: assembly requires dilution from an organic solution; literature statement
Source text: Control of self-assembly using sequence-specific polymers such as peptides and their mimics is a powerful approach to generating functional nanomaterials. Very short self-assembling peptides and their mimics (e.g., ≤ 5 residues) are of special interest since they are more easily scalable and they lead to insight into assembly requirements.[1] Their discovery is nontrivial since assembly propensity (e.g., hydrophobic interactions and hydrogen bonding) and favorable solvent (water) interactions must be balanced among just a few residues.[1]−[3] […] Alternatively, lamellar nanostructures were observed when the dipeptoid was precipitated in water from an ACN solution.

diphenylalanine [FF]
solubility in water: not directly soluble in water
